Here are results for 54 molecules from ChEMBL document CHEMBL1201862, “PubChem BioAssay data set” (2004).

Active and inactive are the calls of the source. A value given as a limit tells only on which side of the number the result lay.

Data set [1] can be described thus: inhibitors of intracellular T. cruzi replication, confirmation, NIH3T3 host cells, beta-gal luminescence (AID 2044).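 Further: intracellular parasites grown in NIH/3T3 mouse fibroblasts as host cells; luminescent beta-galactosidase reporter signal from transgenic T. cruzi replicating inside host cells; inhibitors lower the luminescence signal.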 It counts as functional, cell-based.
Data set [2] is described as follows: cytotoxicity toward NIH3T3 fibroblasts, dose response, counter-screen, cell-based, ATP luminescence, mouse fibroblasts (AID 2010).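 Further: cells exposed to compound for about 90 hours before reading.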 It counts as functional.
For data set [3], the target named is T1, Rac GTPase-activating protein 1 (Homo sapiens, UniProt Q9H0H5).
T1 sequence (Q9H0H5 whole entry): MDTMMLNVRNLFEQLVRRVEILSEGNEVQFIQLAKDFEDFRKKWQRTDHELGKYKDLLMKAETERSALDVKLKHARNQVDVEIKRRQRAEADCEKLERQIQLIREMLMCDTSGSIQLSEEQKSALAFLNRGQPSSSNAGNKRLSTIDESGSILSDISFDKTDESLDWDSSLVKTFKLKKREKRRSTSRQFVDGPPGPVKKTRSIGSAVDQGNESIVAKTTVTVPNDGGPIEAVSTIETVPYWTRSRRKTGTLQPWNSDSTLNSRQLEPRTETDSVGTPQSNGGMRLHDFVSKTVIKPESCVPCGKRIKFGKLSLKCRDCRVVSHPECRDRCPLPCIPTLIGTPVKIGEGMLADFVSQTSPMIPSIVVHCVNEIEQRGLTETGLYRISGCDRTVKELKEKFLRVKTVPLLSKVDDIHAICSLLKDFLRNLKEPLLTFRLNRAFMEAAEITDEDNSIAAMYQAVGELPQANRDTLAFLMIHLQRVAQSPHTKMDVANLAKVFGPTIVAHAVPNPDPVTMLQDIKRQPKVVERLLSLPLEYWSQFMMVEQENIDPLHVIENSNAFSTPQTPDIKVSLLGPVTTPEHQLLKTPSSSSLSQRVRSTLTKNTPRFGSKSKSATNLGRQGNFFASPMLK
As to the kind of experiment: MgcRacGAP GTPase-activating activity inhibitors, confirmation, biochemical, ADP Hunter fluorescence, primary and confirmatory (AID 624330). Format: functional.

For data set [4], the target named is T2, Corticotropin-releasing factor receptor 2/Corticotropin-releasing factor-binding protein (Homo sapiens, UniProt P24387+Q13324).
T2 sequence (Q13324 whole entry): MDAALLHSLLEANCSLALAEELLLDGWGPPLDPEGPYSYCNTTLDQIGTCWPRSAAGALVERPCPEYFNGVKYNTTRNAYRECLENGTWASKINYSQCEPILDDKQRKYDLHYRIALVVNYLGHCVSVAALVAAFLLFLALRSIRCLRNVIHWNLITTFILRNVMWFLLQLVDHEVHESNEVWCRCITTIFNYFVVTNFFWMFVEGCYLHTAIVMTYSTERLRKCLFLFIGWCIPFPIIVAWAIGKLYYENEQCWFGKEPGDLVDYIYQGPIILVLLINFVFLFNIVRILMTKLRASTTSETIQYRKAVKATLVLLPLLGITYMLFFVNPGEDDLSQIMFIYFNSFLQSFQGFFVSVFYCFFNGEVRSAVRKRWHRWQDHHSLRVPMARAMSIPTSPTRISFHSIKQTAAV
T2 sequence (P24387 whole entry): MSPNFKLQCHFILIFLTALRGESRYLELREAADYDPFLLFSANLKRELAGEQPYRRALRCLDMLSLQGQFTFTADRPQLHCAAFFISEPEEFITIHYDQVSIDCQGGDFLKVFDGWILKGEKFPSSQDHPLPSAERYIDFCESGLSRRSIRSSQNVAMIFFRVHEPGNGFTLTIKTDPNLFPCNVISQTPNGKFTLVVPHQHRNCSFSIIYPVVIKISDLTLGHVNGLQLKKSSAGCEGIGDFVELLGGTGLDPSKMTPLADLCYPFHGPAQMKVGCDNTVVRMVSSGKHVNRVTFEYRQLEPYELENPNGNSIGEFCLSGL
Kind of data set: activators of CRF receptor 2 with binding protein – uHTS hits, confirmation (AID 602473). Format: functional. To be noted: read-out: EC50_Mean.

The target in data set [5] is Cytochrome P450 2C19 (Homo sapiens, UniProt P33261). As to the kind of experiment: Cytochrome panel assay with activity outcomes. Panel member name: p450-cyp2c19 Compounds with AC50 equal or less than 10 uM are considered active. It counts as functional.
For data set [6], the target named is Cytochrome P450 2D6 (Homo sapiens, UniProt P10635).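 Further: CYP2D6 member of a cytochrome P450 panel assay.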
Data set [7] concerns INS1. Kind of data set: beta cell apoptosis inhibitors, cytokine rescue, dose response, luminescence, retest (AID 449756).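 Further: cell death triggered by IL-1 beta plus TNF-alpha plus IFN-gamma mixture; protective hits raise ATP signal compared with cytokine alone wells.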 It counts as functional, cell-based. To be noted: Rattus norvegicus.
The target in data set [8] is Cytochrome P450 3A4 (Homo sapiens, UniProt P08684).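 Further: CYP3A4 tested as one member of a cytochrome P450 panel screen.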

Broadly, the IC50 is the point on the concentration scale where inhibition reaches its midpoint. The term AC50 denotes the concentration giving half of the maximal activity seen.

Cytochrome P450 3A4, sequence (P08684 whole entry): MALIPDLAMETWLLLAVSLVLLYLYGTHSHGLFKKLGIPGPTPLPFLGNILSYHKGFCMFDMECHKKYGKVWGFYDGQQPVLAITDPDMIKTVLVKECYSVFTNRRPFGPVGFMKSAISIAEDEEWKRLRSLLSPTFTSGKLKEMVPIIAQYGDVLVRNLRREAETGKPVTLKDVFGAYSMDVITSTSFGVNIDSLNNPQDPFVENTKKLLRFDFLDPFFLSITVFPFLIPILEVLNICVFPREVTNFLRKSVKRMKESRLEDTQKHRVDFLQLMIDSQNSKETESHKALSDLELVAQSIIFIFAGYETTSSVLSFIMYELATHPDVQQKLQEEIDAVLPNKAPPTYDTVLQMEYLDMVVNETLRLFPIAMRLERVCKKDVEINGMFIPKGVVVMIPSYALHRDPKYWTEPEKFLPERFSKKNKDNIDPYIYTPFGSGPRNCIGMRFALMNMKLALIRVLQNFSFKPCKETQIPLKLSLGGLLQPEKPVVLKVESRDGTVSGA
Cytochrome P450 2C19, sequence (P33261 whole entry): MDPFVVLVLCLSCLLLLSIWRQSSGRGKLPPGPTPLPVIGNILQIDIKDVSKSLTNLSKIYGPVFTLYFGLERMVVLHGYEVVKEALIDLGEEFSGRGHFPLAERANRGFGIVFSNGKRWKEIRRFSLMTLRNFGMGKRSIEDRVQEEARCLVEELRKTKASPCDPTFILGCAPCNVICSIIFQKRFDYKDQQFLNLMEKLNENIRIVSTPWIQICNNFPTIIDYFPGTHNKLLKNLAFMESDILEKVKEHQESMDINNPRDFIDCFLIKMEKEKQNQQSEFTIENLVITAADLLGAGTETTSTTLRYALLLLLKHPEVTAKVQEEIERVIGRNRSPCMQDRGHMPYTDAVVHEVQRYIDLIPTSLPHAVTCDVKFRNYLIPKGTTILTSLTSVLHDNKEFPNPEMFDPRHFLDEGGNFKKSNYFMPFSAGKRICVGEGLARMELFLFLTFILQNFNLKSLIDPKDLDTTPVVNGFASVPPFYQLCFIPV
Cytochrome P450 2D6, sequence (P10635 whole entry): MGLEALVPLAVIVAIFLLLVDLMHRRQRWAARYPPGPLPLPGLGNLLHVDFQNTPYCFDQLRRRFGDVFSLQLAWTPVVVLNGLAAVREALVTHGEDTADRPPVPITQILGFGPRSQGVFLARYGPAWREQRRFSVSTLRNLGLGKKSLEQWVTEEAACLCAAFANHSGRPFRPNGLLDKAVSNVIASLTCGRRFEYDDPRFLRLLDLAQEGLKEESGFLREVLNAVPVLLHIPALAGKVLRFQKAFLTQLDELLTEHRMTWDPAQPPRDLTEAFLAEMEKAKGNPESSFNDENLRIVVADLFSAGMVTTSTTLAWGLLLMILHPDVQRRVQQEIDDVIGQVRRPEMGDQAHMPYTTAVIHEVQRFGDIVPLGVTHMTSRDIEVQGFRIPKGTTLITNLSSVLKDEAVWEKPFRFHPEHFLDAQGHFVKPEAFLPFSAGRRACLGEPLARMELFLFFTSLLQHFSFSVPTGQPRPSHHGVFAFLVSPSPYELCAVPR

As for `CCOC(=O)C1=C(N)Oc2ccc3ccccc3c2C1c1cccnc1` (stereo not given), the figures for the EC50 in data set [1] and in data set [2] were 243 nM (active) and > 60 µM (not active), respectively.
Consider `C=CCN1C(=O)CS/C1=N/c1ccc(O)cc1`, for which the IC50 in data set [3] is 25.8 µM (active).
Consider `CSCCC(NC(=O)c1ccco1)C(=O)OC(C)C(=O)NC(=O)NC1CCCCC1` (stereo not given), for which, in data set [4], the EC50 was 0.832 µM (active).
In the case of `CCOC(=O)C1CCN(C(=O)C2CCN(S(=O)(=O)N3CCCC3)CC2)CC1`, the AC50 result in data set [5] is “inconclusive”.
As for `Cc1cccc(C(=O)NCCCN(C)CCCNC(=O)c2cccc(C)c2)c1`, the EC50 in data set [1] was 894 nM (active); in data set [2] it was > 60 µM (not active).
`CC(C)(C)c1ccc(C(=O)NCCC(=O)NCc2ccco2)cc1`: the values for the AC50 in data set [5] (read-out: AC50) and in data set [6] were 7.94 µM (inconclusive) and 22.4 µM (inconclusive), respectively.
For the molecule `O=C1N(Cc2cccc(Cl)c2)C[C@@H]2C[C@@H](c3c[nH]c4ccccc34)N3CCC[C@@]123`, the EC50 is 2000 nM (active) in data set [1] and > 60 µM (inconclusive) in data set [2].
For `Cc1cc(NC(=O)c2cccc(F)c2)no1`, in data set [5] (read-out: AC50), the AC50 is 31.6 µM (inconclusive).
With `COc1ccccc1CN1CCCC2(CCNCC2)C1`, the AC50 in data set [6] is 20 µM (inconclusive).
Consider `CC1(C(=O)OCC(=O)N2c3ccccc3Sc3ccccc32)CC1(Cl)Cl` (stereo not given), for which the AC50 in data set [7] is 37.4 µM (active).
Regarding `c1ccc(C2=NN[C@@H]3c4ccccc4-c4ccccc4N3C2)cc1`, in data set [8], the half-maximal activity concentration (AC50) was 3.16 µM (inconclusive).
For `CCOC(=O)C1CCN(Cc2cccc(Oc3ccccc3)c2)CC1`, in data set [3], the IC50 is 342 µM (active).
For `COc1cc(CN2CCC(C(=O)NC3CCCC3)CC2)ccc1O`, the IC50 in data set [3] was 133 µM (active).
For `Cc1c(Cl)cccc1NC(=O)CCCn1cnc([N+](=O)[O-])n1`, the results for the EC50 in data set [1] and in data set [2] were 131 nM (active) and > 60 µM (not active), respectively.
Turning to `CCNc1ncc2nc(CCc3ccccc3)c(=O)n(C[C@H]3CCCO3)c2n1`, the AC50 in data set [5] (read-out: AC50) is 39.8 µM (inconclusive).
Consider `CCCNC(=O)c1ccc(N2CCC3(CC2)CC(c2cccc(Br)c2)=NO3)c(NC(=O)c2ccccc2)c1`, for which the EC50 is 2500 nM (active) in data set [1] and > 60 µM (not active) in data set [2].
As to `COc1ccccc1/C=N/OCc1cc(C(C)=O)ccc1OC`, the AC50 in data set [7] is 44.6 µM (active).
Take `CN1/C(=C\C(S)=Nc2ccccc2)C(C)(C)c2ccccc21`: the AC50 in data set [7] is 8.05 µM (active).
Take `c1csc(CNc2cc(-c3ccoc3)ncn2)c1`: the AC50 in data set [8] is 25.1 µM (inconclusive).
`COc1ccc(-c2cc(C(=O)Nc3nc4c(C)cccc4s3)c3ccccc3n2)cc1OC`: the AC50 in data set [8] is 11.2 µM (inconclusive).
For the molecule `O=C1/C(=C\c2ccccn2)SC(=S)N1Nc1ncc(C(F)(F)F)cc1Cl`, the AC50 in data set [6] was 17.8 µM (inconclusive).
For `CCCCOC(=O)Nc1nnc(C(C)C)s1`, the values for the EC50 in data set [1] and in data set [2] were 1260 nM (active) and 12.9 µM (active), respectively.
Consider `COc1cccc([C@@H]2Oc3ccc(OC)cc3/C(=N/O[C@@H](C)CN3CCCCc4nc(C)c(C)cc43)[C@@H]2O)c1`, for which the values for the AC50 in data set [5] (read-out: AC50) and in data set [6] were 0.0126 µM (inconclusive) and 3.16 µM (inconclusive), respectively.
As to `Cc1ccc(C(=O)NC(=S)Nc2ccc(CN3CCCCC3)cc2)c(C)c1`, the EC50 in data set [1] was 980 nM (active); in data set [2], 15.8 µM (active).
With `C=CCN1C(c2cccc(C(F)(F)F)c2)=CS/C1=C(/C#N)c1nnc(N2CCOCC2)n1-c1ccccc1`, the EC50 in data set [4] is > 53 µM (inactive).
For the molecule `O=S(=O)(NCc1cc(-c2ccc(Cl)cc2)no1)c1ccc(Cl)cc1`, the AC50 in data set [8] is 25.1 µM (inconclusive).
As for `CCc1cccc2nc3c(c([Si](C)(C)C)c12)Cn1c-3cccc1=O`, the AC50 in data set [5] (read-out: AC50) and in data set [6] was 39.8 µM (inconclusive) in each case.
Take `COc1cccc(C(=O)Oc2c(Br)cc(Br)cc2/C=N/NC(=O)c2cc(C)[nH]n2)c1`: the EC50 in data set [1] is 942 nM (active); in data set [2] it was 8.01 µM (active). Also, the AC50 in data set [7] was 3.11 µM (active).
As to `CN1CCc2c(sc(/N=C/c3cccs3)c2C(N)=O)C1`, the EC50 in data set [4] was > 53 µM (inactive).
As to `CC(C)(CNc1ccc(S(=O)(=O)C(F)(F)F)cc1[N+](=O)[O-])N1CCOCC1`, the figures for the EC50 in data set [1] and in data set [2] were 2420 nM (active) and 4.83 µM (active), respectively.
As to `COc1ccc(-c2c[n+](-c3ccc(OC)cc3)c3n2-c2ccccc2CC3)cc1`, the half-maximal activity concentration (AC50) in data set [7] is 0.786 µM (active).
In the case of `CCCNC1=NC(=O)N(C)C(=O)/C1=N/O`, the AC50 in data set [5] (read-out: AC50) is 28.2 µM (inconclusive); in data set [6], 39.8 µM (inconclusive).
For `C/C(Cn1nnc([N+](=O)[O-])n1)=N\NC(=O)c1ccccc1Cl`, the EC50 was 470 nM (active) in data set [1] and > 60 µM (not active) in data set [2]. Moreover, the AC50 in data set [7] is 10.5 µM (active).
Regarding `CCc1nnc(NC(=O)C2Cc3ccccc3CN2S(=O)(=O)c2ccc(C)cc2)s1` (stereo not given), in data set [6], the half-maximal activity concentration (AC50) is 15.8 µM (inconclusive).
Regarding `COCCNc1ncnc2ccc(-c3ccc(N(C)C)cc3)cc12`, the AC50 is 25.1 µM (inconclusive) in data set [5] (read-out: AC50) and 20 µM (inconclusive) in data set [6].
Take `Cc1ccc(S(=O)(=O)NCCn2cnc([N+](=O)[O-])n2)cc1`: the EC50 was 116 nM (active) in data set [1] and > 60 µM (not active) in data set [2].
Take `O=C(Oc1ccc2c(c1)OCO2)c1ccncc1`: the IC50 in data set [3] is 50.5 µM (active).
On to `FC(F)(F)c1n[nH]c(SCc2ccc(Cl)cc2)n1`, for which the AC50 in data set [5] (read-out: AC50) was 2.51 µM (inconclusive).
Consider `Cc1ccc(C(=O)NC(=S)NNC(=O)c2ccc([N+](=O)[O-])cc2)cc1`, for which the EC50 in data set [4] is 4.2 µM (active).
As for `Brc1csc(/C=N\c2ccc3c(c2)OCCOCCOCCOCCO3)c1`, the IC50 in data set [3] is 75.2 µM (active).
For `c1ccc(Nc2nc(-c3ccncc3)cs2)cc1`, the EC50 in data set [1] was 544 nM (active); in data set [2] it was > 60 µM (not active).
Consider `N#C/C(=C(/O)COC(=O)c1ccccc1O)c1nc2ccccc2s1`, for which the EC50 in data set [4] was > 53 µM (inactive).
As for `Cn1c(=O)c2nc(S)n(Cc3ccccc3)c2n(C)c1=O`, the IC50 in data set [3] is 19.5 µM (active).
On to `COc1ccc(C(=O)CCC(=O)Nc2cc(Cl)c(O)c(Cl)c2)cc1`, for which the IC50 in data set [3] was 118 µM (active).
With `CCOC(=O)C1(CC2CCCCO2)CCN(Cc2cc3ccccc3[nH]2)CC1` (stereo not given), in data set [4], the EC50 is 7.87 µM (active).
For `COc1ccc(NC(=O)N2CC3(CCN(C(C)=O)CC3)C2)cc1`, the AC50 in data set [6] was 12.6 µM (inconclusive).
Take `O=[As](O)(O)c1ccc2nc3cc([As](=O)(O)O)ccc3nc2c1`: in data set [5], the AC50 result is “inconclusive”.
For `COc1ccc(NC2CCCN(C(=O)CCN3Cc4ccccc4C3=O)C2)cc1` (stereo not given), in data set [3], the IC50 was 65.1 µM (active).
In the case of `COc1ccccc1C1NC=C([N+](=O)[O-])C=C1[N+](=O)[O-]` (stereo not given), the EC50 in data set [1] was 1730 nM (active); in data set [2], > 60 µM (not active).
Consider `Cc1ccc(N(C(=O)C(F)(F)F)C(C(=O)NC2CCCCC2)c2cccs2)cc1C` (stereo not given), for which the AC50 in data set [5] (read-out: AC50) was 0.0355 µM (inconclusive).
Turning to `CCC(=O)Nc1ccc2c(c1)C(=O)c1ccccc1C2=O`, the AC50 in data set [5] (read-out: AC50) was 7.94 µM (inconclusive).
Take `Clc1ccc(-c2nc3ncccn3c2Nc2ccc3c(c2)OCCO3)cc1`: the values for the AC50 in data set [5] (read-out: AC50) and in data set [6] were 7.08 µM (inconclusive) and 31.6 µM (inconclusive), respectively.
With `Clc1ccc(CNc2ccc(N3CCN(Cc4ccccc4)CC3)cc2)cc1`, in data set [3], the IC50 was 41.4 µM (active).
Regarding `Cc1ccc(SCCCn2cnc3ccccc3c2=O)cc1`, the AC50 in data set [6] was 1 µM (inconclusive).
